Data from patent US20250255981A1, “IMMUNOMODULATORY ANTIBODY-DRUG CONJUGATES” (Seagen Inc., priority 2022, published 2025).
Values after ≈ are worked out from the molar mass of the structure shown.

System: THP1-Dual™ cells (IRF-Lucia luciferase reporter)
Experiment: THP1-Dual™ cell reporter assay
Format: cell-based, human
Details: ADC: drug linker conjugated to targeted mAb, 48 h; some values average of multiple experiments
Method: Potency of compounds and ADCs was evaluated using the THP1-Dual™ cells (Invivogen PN: thpd-nfis [also referred to as THP1 dual reporter cells]), which contain an IRF-Lucia luciferase reporter. Cells were cultured in RPMI-1640 (Gibco) with 10% heat-inactivated fetal bovine serum, Pen-Strep (100 U/mL-100 […], Gibco), HEPES (10 mM, Gibco)), sodium pyruvate (1 mM, Gibco), MEM non-essential amino acids (1×, Gibco), GlutaMAX (1×, Gibco), and beta-mercaptoethanol (55 μM, Gibco). Cells were plated in a 96-well flat bottom tissue culture-treated clear polystyrene plate (Corning Costar #3596) at ˜100,000 cells per well in 200 μL with the indicated concentration of the compound or ADC. The supernatant was harvested at 24 hours (compounds) or 48 hours (ADC) post plating for the reporter assay, or as indicated. To measure Lucia reporter signal, 10 µL of the supernatant was combined with 40 µL of QUANTI-Luc™ Luminescence assay reagent (Invivogen PN: rep-qlc1) in a 96-well clear flat bottom tissue culture-treated black polystyrene plate (Corning Costar #3603) and read on a Perkin Elmer Envision plate reader.

SMILES | EC50, Lucia reporter signal
CCn1nc(C)cc1C(=O)Nc1nc2cc(S(=O)(=O)NC)ccc2n1C/C=C/Cn1c(NC(=O)c2cc(C)nn2CC)nc2cc(C(N)=O)cc(OCCCN(C)C(=O)CCN3C(=O)C=CC3=O)c21 [compound 128, (E)-7-(3-(3-(2,5-dioxo-2,5-dihydro-1H-pyrrol-1-yl)-N-methylpropanamido)propoxy)-2-(1-ethyl-3-methyl-H-pyrazole-5-carboxamido)-1-(4-(2-(1-ethyl-3-methyl-1H-pyrazole-5-carboxamido)-5-(N-methylsulfamoyl)-1H-benzo[d]imidazol-1-yl)but-2-en-1-yl)-1H-benzo[d]imidazole-5-carboxamide] | >10,000 ng/mL
CCn1nc(C)cc1C(=O)Nc1nc2cc(C(N)=O)cc(OC)c2n1C/C=C/Cn1c(NC(=O)c2cc(C)nn2CC)nc2cc(C(N)=O)cc(OCCCN(C(=O)CCN3C(=O)C=CC3=O)C3CC3)c21 [compound 133, (E)-1-(4-(5-carbamoyl-2-(1-ethyl-3-methyl-1H-pyrazole-5-carboxamido)-7-methoxy-1H-benzo[d]imidazol-1-yl)but-2-en-1-yl)-7-(3-(N-cyclopropyl-3-(2,5-dioxo-2,5-dihydro-1H-pyrrol-1-yl)propanamido)propoxy)-2-(1-ethyl-3-methyl-1H-pyrazole-5-carboxamido)-1H-benzo[d]imidazole-5-carboxamide] | 12.2 ng/mL (≈ 0.0126 µM)
CCn1nc(C)cc1C(=O)Nc1nc2cc(C(N)=O)cc(OC)c2n1C/C=C/Cn1c(NC(=O)c2cc(C)nn2CC)nc2cc(C(N)=O)cc(OCCC[N+](C)(C)Cc3ccc(O[C@@H]4O[C@H](C(=O)O)[C@@H](O)[C@H](O)[C@H]4O)cc3NC(=O)CCNC(=O)CCN3C(=O)C=CC3=O)c21.O=C([O-])C(F)(F)F [compound 134] | 10.3 ng/mL
CCn1nc(C)cc1C(=O)Nc1nc2cc(S(N)(=O)=O)ccc2n1C/C=C/Cn1c(NC(=O)c2cc(C)nn2CC)nc2cc(C(N)=O)cc(OCCCOC3CN(C(=O)CCN4C(=O)C=CC4=O)C3)c21 [compound 146, (E)-7-(3-((1-(3-(2,5-dioxo-2,5-dihydro-1H-pyrrol-1-yl)propanoyl)azetidin-3-yl)oxy)propoxy)-2-(1-ethyl-3-methyl-1H-pyrazole-5-carboxamido)-1-(4-(2-(1-ethyl-3-methyl-1H-pyrazole-5-carboxamido)-5-sulfamoyl-1H-benzo[d]imidazol-1-yl)but-2-en-1-yl)-1H-benzo[d]imidazole-5-carboxamide] | >10,000 ng/mL
CCn1nc(C)cc1C(=O)Nc1nc2cc(S(N)(=O)=O)ccc2n1C/C=C/Cn1c(NC(=O)c2cc(C)nn2C)nc2cc(C(N)=O)cc(OCCCOC3CN(C(=O)CCN4C(=O)C=CC4=O)C3)c21 [compound 147, (E)-2-(1,3-dimethyl-1H-pyrazole-5-carboxamido)-7-(3-((1-(3-(2,5-dioxo-2,5-dihydro-1H-pyrrol-1-yl)propanoyl)azetidin-3-yl)oxy)propoxy)-1-(4-(2-(1-ethyl-3-methyl-1H-pyrazole-5-carboxamido)-5-sulfamoyl-1H-benzo[d]imidazol-1-yl)but-2-en-1-yl)-1H-benzo[d]imidazole-5-carboxamide] | >10,000 ng/mL
CCn1nc(C)cc1C(=O)Nc1nc2cc(S(N)(=O)=O)ccc2n1C/C=C/Cn1c(NC(=O)c2cc(C)nn2C)nc2cc(C(N)=O)cc(OCCCN(C)C(=O)CCN3C(=O)C=CC3=O)c21 [compound 148, (E)-2-(1,3-dimethyl-1H-pyrazole-5-carboxamido)-7-(3-(3-(2,5-dioxo-2,5-dihydro-1H-pyrrol-1-yl)-N-methylpropanamido)propoxy)-1-(4-(2-(1-ethyl-3-methyl-1H-pyrazole-5-carboxamido)-5-sulfamoyl-1H-benzo[d]imidazol-1-yl)but-2-en-1-yl)-1H-benzo[d]imidazole-5-carboxamide] | >10,000 ng/mL
CCn1nc(C)cc1C(=O)Nc1nc2cc(C(N)=O)cc(OC)c2n1C/C=C/Cn1c(NC(=O)c2cc(C)nn2C)nc2cc(C(N)=O)cc(OCCC3CN(C(=O)CCN4C(=O)C=CC4=O)C3)c21 [compound 149, (E)-1-(4-(5-carbamoyl-2-(1,3-dimethyl-1H-pyrazole-5-carboxamido)-7-(2-(1-(3-(2,5-dioxo-2,5-dihydro-1H-pyrrol-1-yl)propanoyl)azetidin-3-yl)ethoxy)-1H-benzo[d]imidazol-1-yl)but-2-en-1-yl)-2-(1-ethyl-3-methyl-1H-pyrazole-5-carboxamido)-7-methoxy-1H-benzo[d]imidazole-5-carboxamide] | >10,000 ng/mL
